# Experimental data published in patent US6380218B1, “Nicotinamide derivatives” (Pfizer Inc, priority 1997, dated 2002).
row,melting point,Structure (SMILES)
1,145 to 147 °C,"N#Cc1cccc(Oc2ncccc2C(=O)NCc2ccc(Cl)s2)c1 [Example 111, N-(5-Chloro-thiophen-2-ylmethyl)-2-(3-cyano-phenoxy)-nicotinamide]"
2,197 to 199 °C,"N#Cc1cccc(Oc2ncccc2C(=O)NCc2ccc3c(c2)CC(=O)N3)c1 [Example 112, 2-(3-Cyano-phenoxy)-N-(2-oxo-2,3-dihydro-1H-indol-5-ylmethyl)-nicotinamide]"
3,97 to 99 °C,"CC(C)(O)c1ccc(CNC(=O)c2cccnc2Oc2cccc(C#N)c2)cc1 [Example 113, 2-(3-Cyano-phenoxy)-N-[4-(1-hydroxy-1-methyl-ethyl)-benzyl]-nicotinamide]"
4,121 to 123 °C,"CC(C)(O)c1ccc(CNC(=O)c2cccnc2Oc2cccc(C#N)c2)c(Cl)c1 [Example 116, N-[2-Chloro-4-(1-hydroxy-1-methyl-ethyl)-benzyl]-2-(3-cyano-phenoxy)-nicotinamide]"
5,56 to 58 °C,"CCc1n[nH]c2ccc(C(NC(=O)c3cccnc3Oc3cccc(C#N)c3)C3CCCCC3)cc12 (stereo not drawn) [Example 117, 2-(3-Cyano-phenoxy)-N-(-cyclohexyl-3-ethyl-1H-indazol-5-ylmethyl)-nicotinamide]"
6,112 to 114 °C,"N#Cc1ccc(Oc2ncccc2C(=O)NCc2ccccc2Cl)cc1 [Example 119, N-(2-Chloro-benzyl)-2-(4-cyano-phenoxy)-nicotinamide]"
7,128 to 130 °C,"CC(=O)Nc1ccc(CNC(=O)c2cccnc2Oc2ccc(F)cc2)cc1 [Example 124, N-(4-Acetylamino-benzyl)-2-(4-fluoro-phenoxy)-nicotinamide]"
8,155 to 157 °C,"CC(=O)Nc1cccc(Oc2ncccc2C(=O)NCc2ccc(C(C)(C)O)cc2)c1 [Example 126, 2(3-Acetylamino-phenoxy)-N-[4-(1-hydroxy-1-methyl-ethyl)-benzyl]-nicotinamide]"
9,91 to 93 °C,"CC(C)(C)C(=O)Oc1ccc(CNC(=O)c2cccnc2Oc2ccc(F)cc2)cc1 [Example 130, 2,2-Dimethyl-propionic acid 4-({[2-(4-fluoro-phenoxy)-pyridine-3-carbonyl]-amino}-methyl)-phenyl ester]"
10,107 to 109 °C,"CS(=O)(=O)Nc1ccc(CNC(=O)c2cccnc2Oc2ccc(F)cc2)cc1 [Example 131, 2-(4-Fluoro-phenoxy)-N-(4-methanesulfonylamino-benzyl)-nicotinamide]"
11,118 to 119 °C,"O=C(NCC(O)c1ccccc1)c1cccnc1Oc1cccc(Cl)c1 (stereo not drawn) [Example 133, 2-(3-Chloro-phenoxy)-N-(2-hydroxy-2-phenyl-ethyl)-nicotinamide]"
12,73 to 75 °C,"O=C(Cc1ccccc1Cl)Nc1cccnc1Oc1ccc(F)cc1 [Example 136, 2-(2-Chloro-phenyl)-N-[2-(4-fluoro-phenoxy)-pyridin-3-yl]-acetamide]"
13,118 to 120 °C,"CC(=O)c1ccc(CC(=O)Nc2cccnc2Oc2ccc(F)cc2)cc1 [Example 137, 2-(4-Acetyl-phenyl)-N-[2-(4-fluoro-phenoxy)-pyridin-3-yl]-acetamide]"
14,180 to 182 °C,"COc1ccccc1NC(=O)Nc1cccc(Oc2ncccc2C(=O)NCc2ccccc2Cl)c1 [Example 138, N-(2-Chloro-benzyl)-2-(3-[3-(2-methoxy-phenyl)-ureido]-phenoxy}-nicotinamide]"
15,121 to 123 °C,"O=C(Nc1cccc(Oc2ncccc2C(=O)NCc2ccccc2Cl)c1)Nc1cccc2ccccc12 [Example 139, N-(2-Chloro-benzyl)-2-[3-(3-naphthalen-1-yl-ureido)-phenoxy]-nicotinamide]"
16,101 to 103 °C,"Nc1cccc(Oc2ncccc2C(=O)NCc2ccccc2Cl)c1 [Example 144, 2-(3-Amino-phenoxy)-N-(2-chloro-benzyl)-nicotinamide]"
17,201 to 203 °C,"CC(=O)c1ccc(CNC(=O)c2cccnc2Oc2cccnc2)s1 [Example 159, N-(5-Acetyl-thiophen-2-ylmethyl)-2-(pyridin-3-yloxy)-nicotinamide]"
18,92 to 94 °C,"CC(O)c1ccc(CNC(=O)c2cccnc2Oc2cccnc2)s1 (stereo not drawn) [Example 160, N-[5-(1-Hydroxy-ethyl)-thiophen-2-ylmethyl]-2-(pyridin-3yloxy)-nicotinamide]"
19,236 to 238 °C,"O=C(O)c1cc2cc(CNC(=O)c3cccnc3Oc3ccc(F)cc3)ccc2[nH]1 [Example 165, 5-({[2-(4-Fluoro-phenoxy)-pyridine-3-carbonyl]-amino}-methyl)-1H-indole-2-carboxylic acid]"
20,55 to 56 °C,"CCCCNC(=O)c1cccnc1Oc1cccnc1 [Example 174, N-Butyl-2-(pyridin-3-yloxy)-nicotinamide]"
21,61 to 62 °C,"CCCCCNC(=O)c1cccnc1Oc1cccnc1 [Example 175, N-Pentyl-2-(pyridin-3-yloxy)-nicotinamide]"
22,64 to 65 °C,"CC[C@H](C)NC(=O)c1cccnc1Oc1cccnc1 [Example 176, (S)-N-sec-Butyl-2-(pyridin-3-yloxy)-nicotinamide]"
23,55 to 56 °C,"CC[C@@H](C)NC(=O)c1cccnc1Oc1cccnc1 [Example 177, (R)-N-sec-Butyl-2-(pyridin-3-yloxy)-nicotinamide]"
24,196 to 197 °C,"NS(=O)(=O)c1ccc(CNC(=O)c2cccnc2Oc2cccnc2)cc1 [Example 178, 2-(Pyridin-3-yloxy)-N-(4-sulfamoyl-benzyl)-nicotinamide]"
25,165 to 166 °C,"NS(=O)(=O)N1CCC(CNC(=O)c2cccnc2Oc2cccnc2)CC1 [Example 179, 2-(Pyridin-3-yloxy)-N-(1-sulfamoyl-piperidin-4-ylmethyl)-nicotinamide]"
26,134 to 135 °C,"O=C(NCc1cccc2[nH]ccc12)c1cccnc1Oc1cccnc1 [Example 180, N-(1H-Indol-4-ylmethyl)-2-(pyridin-3yloxy)-nicotinamide]"

# The next lines start with the compound.
row,Structure (SMILES),melting point
1,"O=C(NCc1ccc(C2(O)CCC2)cc1)c1cccnc1Oc1ccc(F)cc1 [Example 85, 2-(4-Fluoro-phenoxy)-N-[4-(1-hydroxy-cyclobutyl)-benzyl]-nicotinamide]",95 to 97 °C
2,"CC(C)(O)c1ccc(CNC(=O)c2cccnc2Oc2ccc(F)cc2)c(Cl)c1 [Example 86, N-[2-Chloro-4-(1-hydroxy-1-methyl-ethyl)-benzyl]-2-(4-fluoro-phenoxy)-nicotinamide]",102 to 104 °C
3,"O=C(NCc1ccc(N2CCC2)cc1)c1cccnc1Oc1ccc(F)cc1 [Example 87, N-(4-Azetidin-1-yl-benzyl)-2-(4-fluoro-phenoxy)-nicotinamide]",128 to 129 °C
4,"O=C(NCc1ccc(N2CC(O)C2)cc1)c1cccnc1Oc1ccc(F)cc1 [Example 88, 2-(4-Fluoro-phenoxy)-N-[4-(3-hydroxy-azetidin-1-yl)-benzyl]-nicotinamide]",157 to 159 °C
5,"O=C(NCc1ccc(N2CCCC2)cc1)c1cccnc1Oc1ccc(F)cc1 [Example 89, 2-(4-Fluoro-phenoxy)-N-(4-pyrrolidin-1-yl-benzyl)-nicotinamide]",127 to 128 °C
6,"O=C(NCc1ccc(N2CCCCC2)cc1)c1cccnc1Oc1ccc(F)cc1 [Example 90, 2-(4-Fluoro-phenoxy)-N-(4-piperidin-1-yl-benzyl)-nicotinamide]",118 to 119 °C
7,"O=C(NCc1ccc(N2CCOCC2)cc1)c1cccnc1Oc1ccc(F)cc1 [Example 91, 2-(4-Fluoro-phenoxy)-N-(4-morpholin-4-yl-benzyl)-nicotinamide]",163 to 165 °C
8,"O=C1CCN(c2ccc(CNC(=O)c3cccnc3Oc3ccc(F)cc3)cc2)CC1 [Example 92, 2-(4-Fluoro-phenoxy)-N-[4-(4-oxo-piperidin-1-yl)-benzyl]-nicotinamide]",138 to 139 °C
9,"CC1(c2ccc(CNC(=O)c3cccnc3Oc3ccc(F)cc3)cc2)OCCO1 [Example 94, 2-(4-Fluoro-phenoxy)-N-[4-(2-methyl-[1,3]dioxolan-2-yl)-benzyl]-nicotinamide]",78 to 80 °C
10,"O=C(NCc1sc(Cl)cc1Cl)c1cccnc1Oc1ccc(F)cc1 [Example 97, N-(3,5-Dichloro-thiophen-2ylmethyl)-2-(4-fluoro-phenoxy)-nicotinamide]",132 to 134 °C
11,"O=C(NCC1CC1)c1cccnc1Oc1cncc(Cl)c1 [Example 98, 2-(5-Chloro-pyridin-3-yloxy)-N-cyclopropylmethyl-nicotinamide]",105 to 107 °C
12,"CC(C)(O)c1ccc(CNC(=O)c2cccnc2Oc2ccc(F)c(C#N)c2)c(F)c1 [Example 99, 2-(3-Cyano-4-fluoro-phenoxy)-N-[2-fluoro4-(1-hydroxy-1-methyl-ethyl)-benzyl]-nicotinamide]",157 to 159 °C
13,"O=C(NCc1ccc(O)cc1)c1cccnc1Oc1ccc(F)cc1 [Example 103, 2-(4-Fluoro-phenoxy)-N-(4-hydroxy-benzyl)-nicotinamide]",185 to 187 °C
14,"O=C(NCc1ccc(O)cc1)c1cccnc1Oc1cccnc1 [Example 104, N-(4-Hydroxy-benzyl)-2-(pyridin-3yloxy)-nicotinamide]",156 to 158 °C
15,"O=C1Cc2cc(CNC(=O)c3cccnc3Oc3cccc([N+](=O)[O-])c3)ccc2N1 [Example 106, 2-(3-Nitro-phenoxy)-N-(2-oxo-2,3-dihydro-1H-indol-5-ylmethyl)-nicotinamide]",190 to 192 °C
16,"CC(C)(O)c1ccc(CNC(=O)c2cccnc2Oc2cccc([N+](=O)[O-])c2)cc1 [Example 107, N-[4-(1-Hydroxy-1-methyl-ethyl)-benzyl]-2-(3-nitro-phenoxy)-nicotinamide]",43 to 45 °C
17,"Cc1cc(CNC(=O)c2cccnc2Oc2cccc([N+](=O)[O-])c2)cc(C)c1O [Example 108, N-(4-Hydroxy-3,5-dimethyl-benzyl)-2-(3-nitro-phenoxy)-nicotinamide]",128 to 130 °C
18,"O=C(NCc1ccc(Cl)s1)c1cccnc1Oc1cccc([N+](=O)[O-])c1 [Example 109, N-(5-Chloro-thiophen-2-ylmethyl)-2-(3-nitro-phenoxy)-nicotinamide]",115 to 117 °C
19,"N#Cc1cccc(Oc2ncccc2C(=O)NCc2ccccc2Cl)c1 [Example 110, N-(2-Chloro-benzyl)-2-(3-cyano-phenoxy)-nicotinamide]",135 to 137 °C
